Measurements taken from PubChem BioAssay AID2060623 (Molecular Pharmacology Branch, DTP, NCI, 2025).

System: 227483-062-R1-J1-PDC complex spheroids with HUVEC/MSC, viability
Test: Anticancer human tumor 227483-062-R1-J1-PDC patient-derived pancreatic carcinoma cell line growth inhibition [CLK]
Conditions: for IC50: curve of first compound; for viability, T/C: stronger effect = lower value
Summary of the method: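 Patient-derived tumor cells grown as complex spheroids with HUVEC endothelial cells and mesenchymal stem cells, treated with drug combinations. Concentrations descend in half-log steps from near clinical Cmax, or from 10 microM if Cmax unknown.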

[1] = second compound 0.0316 µM, first compound 0.0316 µM
[2] = second compound 0.0316 µM, first compound 0.1 µM
[3] = second compound 0.0316 µM, first compound 0.316 µM
[4] = second compound 0.0316 µM, first compound 1 µM
[5] = second compound 0.0316 µM, first compound 3.16 µM
[6] = second compound 0.0316 µM, first compound 10 µM
[7] = second compound 0.1 µM, first compound 0.0316 µM
[8] = second compound 0.1 µM, first compound 0.1 µM
[9] = second compound 0.1 µM, first compound 0.316 µM
[10] = second compound 0.1 µM, first compound 1 µM
[11] = second compound 0.1 µM, first compound 3.16 µM
[12] = second compound 0.1 µM, first compound 10 µM
[13] = second compound 0.316 µM, first compound 0.0316 µM
[14] = second compound 0.316 µM, first compound 0.1 µM
[15] = second compound 0.316 µM, first compound 0.316 µM
[16] = second compound 0.316 µM, first compound 1 µM
[17] = second compound 0.316 µM, first compound 3.16 µM
[18] = second compound 0.316 µM, first compound 10 µM
[19] = second compound 1 µM, first compound 0.0316 µM
[20] = second compound 1 µM, first compound 0.1 µM
[21] = second compound 1 µM, first compound 0.316 µM
[22] = second compound 1 µM, first compound 1 µM
[23] = second compound 1 µM, first compound 3.16 µM
[24] = second compound 1 µM, first compound 10 µM
[25] = second compound 3.16 µM, first compound 0.0316 µM
[26] = second compound 3.16 µM, first compound 0.1 µM
[27] = second compound 3.16 µM, first compound 0.316 µM
[28] = second compound 3.16 µM, first compound 1 µM
[29] = second compound 3.16 µM, first compound 3.16 µM
[30] = second compound 3.16 µM, first compound 10 µM
[31] = second compound 10 µM, first compound 0.0316 µM
[32] = second compound 10 µM, first compound 0.1 µM
[33] = second compound 10 µM, first compound 0.316 µM
[34] = second compound 10 µM, first compound 1 µM
[35] = second compound 10 µM, first compound 3.16 µM
[36] = second compound 10 µM, first compound 10 µM
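Also: spheroids exposed to compounds for seven days before readout.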
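For viability, T/C in this document: percent of DMSO vehicle control luminescence as 100% viability.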

CC(=O)O[C@H]1C(=O)[C@@]2(C)[C@H]([C@H](OC(=O)c3ccccc3)[C@]3(O)C[C@H](OC(=O)[C@H](O)[C@@H](NC(=O)c4ccccc4)c4ccccc4)C(C)=C1C3(C)C)[C@]1(OC(C)=O)CO[C@@H]1C[C@@H]2O + CNC(=O)c1ccc(Nc2nc(OC3CCCC3)c3c(-c4ccc5nc(C)oc5c4)c[nH]c3n2)c(OC)c1
IC50 (second compound 0.0316 µM): < 0.0316 µM | IC50 (second compound 0.1 µM): > 10 µM | IC50 (second compound 0.316 µM): > 10 µM | IC50 (second compound 1 µM): > 10 µM | IC50 (second compound 3.16 µM): < 0.0316 µM | IC50 (second compound 10 µM): < 0.0316 µM | viability, T/C [1]: 29.7% | viability, T/C [2]: 27.1% | viability, T/C [3]: 35.6% | viability, T/C [4]: 43.4% | viability, T/C [5]: 48.3% | viability, T/C [6]: 75.9% | viability, T/C [7]: 53.8% | viability, T/C [8]: 62.1% | viability, T/C [9]: 71.1% | viability, T/C [10]: 85.1% | viability, T/C [11]: 77.1% | viability, T/C [12]: 101% | viability, T/C [13]: 70.4% | viability, T/C [14]: 95.6% | viability, T/C [15]: 98.9% | viability, T/C [16]: 101% | viability, T/C [17]: 99.3% | viability, T/C [18]: 95.8% | viability, T/C [19]: 60.8% | viability, T/C [20]: 69.2% | viability, T/C [21]: 72.7% | viability, T/C [22]: 101% | viability, T/C [23]: 96.7% | viability, T/C [24]: 89.4% | viability, T/C [25]: 46.7% | viability, T/C [26]: 58.9% | viability, T/C [27]: 62.9% | viability, T/C [28]: 61.5% | viability, T/C [29]: 70.1% | viability, T/C [30]: 54.6% | viability, T/C [31]: 37.9% | viability, T/C [32]: 49.9% | viability, T/C [33]: 50.3% | viability, T/C [34]: 61.4% | viability, T/C [35]: 49.5% | viability, T/C [36]: 55.5%

COc1ccc([C@@H](O)c2cc(-c3ncnc4cc(N5CCOCC5)ccc34)c(F)cc2Cl)nn1 + CNC(=O)c1ccc(Nc2nc(OC3CCCC3)c3c(-c4ccc5nc(C)oc5c4)c[nH]c3n2)c(OC)c1
IC50 (second compound 0.0316 µM): > 10 µM | IC50 (second compound 0.1 µM): > 10 µM | IC50 (second compound 0.316 µM): > 10 µM | IC50 (second compound 1 µM): 0.75 µM | IC50 (second compound 3.16 µM): < 0.0316 µM | IC50 (second compound 10 µM): < 0.0316 µM | viability, T/C [1]: 94.6% | viability, T/C [2]: 85.9% | viability, T/C [3]: 108% | viability, T/C [4]: 94.5% | viability, T/C [5]: 73.1% | viability, T/C [6]: 59.8% | viability, T/C [7]: 98.6% | viability, T/C [8]: 86.8% | viability, T/C [9]: 76.7% | viability, T/C [10]: 75.5% | viability, T/C [11]: 58.5% | viability, T/C [12]: 53.5% | viability, T/C [13]: 86.2% | viability, T/C [14]: 83.1% | viability, T/C [15]: 72.1% | viability, T/C [16]: 56.5% | viability, T/C [17]: 63.5% | viability, T/C [18]: 53.7% | viability, T/C [19]: 68.1% | viability, T/C [20]: 64.3% | viability, T/C [21]: 62.8% | viability, T/C [22]: 42.5% | viability, T/C [23]: 48% | viability, T/C [24]: 46.7% | viability, T/C [25]: 42% | viability, T/C [26]: 41.5% | viability, T/C [27]: 42.1% | viability, T/C [28]: 45.7% | viability, T/C [29]: 48.3% | viability, T/C [30]: 26.2% | viability, T/C [31]: 36.1% | viability, T/C [32]: 38.2% | viability, T/C [33]: 31.9% | viability, T/C [34]: 39% | viability, T/C [35]: 38.6% | viability, T/C [36]: 27.9%

COc1cccc2c1C(=O)c1c(O)c3c(c(O)c1C2=O)CC(O)(C(=O)CO)CC3OC1CC(N)C(O)C(C)O1 (stereo unspecified) + CNC(=O)c1ccc(Nc2nc(OC3CCCC3)c3c(-c4ccc5nc(C)oc5c4)c[nH]c3n2)c(OC)c1
IC50 (second compound 0.0316 µM): 0.277 µM | IC50 (second compound 0.1 µM): 0.229 µM | IC50 (second compound 0.316 µM): 0.177 µM | IC50 (second compound 1 µM): 0.114 µM | IC50 (second compound 3.16 µM): < 0.0316 µM | IC50 (second compound 10 µM): < 0.0316 µM | viability, T/C [1]: 84.4% | viability, T/C [2]: 91.2% | viability, T/C [3]: 43.6% | viability, T/C [4]: 19.9% | viability, T/C [5]: 1.83% | viability, T/C [6]: 10.3% | viability, T/C [7]: 81.2% | viability, T/C [8]: 79.9% | viability, T/C [9]: 38.1% | viability, T/C [10]: 15% | viability, T/C [11]: 2.41% | viability, T/C [12]: 10.7% | viability, T/C [13]: 81.7% | viability, T/C [14]: 66.2% | viability, T/C [15]: 33.8% | viability, T/C [16]: 9.76% | viability, T/C [17]: 2.28% | viability, T/C [18]: 9.14% | viability, T/C [19]: 66.9% | viability, T/C [20]: 53.5% | viability, T/C [21]: 20.1% | viability, T/C [22]: 4.28% | viability, T/C [23]: 2.52% | viability, T/C [24]: 5.99% | viability, T/C [25]: 45.1% | viability, T/C [26]: 35.9% | viability, T/C [27]: 11.5% | viability, T/C [28]: 2.71% | viability, T/C [29]: 3.57% | viability, T/C [30]: 5.5% | viability, T/C [31]: 41.7% | viability, T/C [32]: 28.1% | viability, T/C [33]: 11.3% | viability, T/C [34]: 2.5% | viability, T/C [35]: 3.15% | viability, T/C [36]: 6.7%
